The source of these data is patent US20090209571A1, “Phenanthrene derivatives as MPGES-1 inhibitors” (priority 2006, published 2009).

This assay addresses T1, human mPGES-1 (Homo sapiens, UniProt O14684).
T1 construct: expressed in transfected cells; host or cells: CHO-K1 cells, transiently transfected; microsomal fraction used
T1 sequence (O14684 1-152): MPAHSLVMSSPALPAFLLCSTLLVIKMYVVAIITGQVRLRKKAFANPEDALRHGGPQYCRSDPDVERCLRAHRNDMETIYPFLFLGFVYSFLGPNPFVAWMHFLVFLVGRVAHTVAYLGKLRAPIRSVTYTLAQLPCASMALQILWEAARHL
Put plainly: Microsomal Prostaglandin E Synthase Assay. Particulars: microsomal fractions from CHO-K1 cells transiently transfected with human mPGES-1 cDNA; 1 μM PGH2; PGE2 by EIA; average of at least n=3; read-out: h-CHO (nM), potency expressed as IC50. The format is biochemical. The procedure: Compounds are tested as inhibitors of prostaglandin E synthase activity in microsomal prostaglandin e synthases, whole cell and in vivo assays. These assays measure prostaglandin E2 (PGE2) synthesis using either Enzymatic Immunoassay (EIA) or mass spectrometry. Cells used for microsomal preparation are CHO-K1 cells transiently transfected with plasmids encoding the human mPGES-1 cDNA. Cells used for cell-based experiments are human A549 (which express human mPGES-1). Guinea pigs are used to test the activity of selected compounds in vivo. In all these assays, 100% activity is defined as the PGE2 production in vehicle-treated samples. IC50 and ED50 represent the concentration or dose of inhibitor required to inhibit PGE2 synthesis by 50% as compared to the uninhibited control.
Prostaglandin E synthase microsomal fractions are prepared from CHO-K1 cells transiently transfected with plasmid encoding the human mPGES-1 cDNA. Microsomes are then prepared and the PGES assay begins with the incubation of 5 μg/ml microsomal PGES-1 with compound or DMSO (final 1%) for 20-30 minutes at room temperature. The enzyme reactions are performed in 200 mM KPi pH 7.0, 2 mM EDTA and 2.5 mM GSH-reduced form. The enzymatic reaction is then initiated by the addition of 1 μM final PGH2 substrate prepared in isopropanol (3.5% final in assay well) and incubated at room temperature for 30 seconds. The reaction is terminated by the addition of SnCl2 in 1N HCl (1 mg/ml final). Measurement of PGE2 production in the enzyme reaction aliquots is done by EIA using a standard commercially available kit (Cat #: 901-001 from Assay Designs).
The potency is expressed as IC50 and the value indicated is an average of at least n=3.
In the case of `N#Cc1cccc(C#N)c1-c1nc2c3ccc(Cl)cc3c3ccoc3c2[nH]1` [Example 12], the IC50 amounted to 3.2 nM. As to `Fc1cccc(Cl)c1-c1nc2c3ccc(Cl)cc3c3cc(Br)sc3c2[nH]1` [Example 15], the IC50 is 1.8 nM. Then `Fc1cccc(Cl)c1-c1nc2c3ccccc3c3sc(Cl)cc3c2[nH]1` [Example 2], with 10.5 nM. For `CC(C)(O)C#Cc1ccc2c(c1)c1c(Cl)c(Cl)sc1c1[nH]c(-c3c(C#N)cccc3C#N)nc21` [Example 28] the value was 1.5 nM.
